Assay [1] deals with MEIS1 mRNA in MV4; 11 cells. The assay can be described thus: Test 3: inhibition of mRNA transcription, MEIS1. In kind it is cell-based. The following applies: for mrna remaining at 1 µM: Homo sapiens, MV4, 20 to 24 hours, fitted with GAPDH, read-out: mRNA at 1 μM (% control) MEIS1; for mRNA transcription inhibition activity (in words): MEIS1 and HOXA9, MV4, 1 μM, summary of the table. Here is the method:
(§1) MV4; 11 cells were obtained from American Type Culture Collection (ATCC). The cells were cultured at 37° C. in the presence of 5% CO2 in RPMI 1640 medium containing 10% fetal bovine serum and 1% penicillin/streptomycin. To the MV4; 11 cells was added each test compound to adjust the final concentration to 1 μmol/L, and the cells were cultured at 37° C. in the presence of 5% CO2 for 20 to 24 hours. After the incubation, the total RNA was extracted from the cells with RNeasy™ Mini Kit (QIAGEN, 74106), and cDNA was synthesized with Superscript™ VILO™ cDNA Synthesis Kit (Invitrogen, #11754250). By using TaqMan™ Gene Expression Master Mix (Applied Biosystems, 4369016) and TaqMan™ probe (Applied Biosystems), the expression level of mRNA was quantified from the obtained cDNA with 7900HT (Applied biosystems). The mRNA expression level of each obtained gene was fitted with the expression level of mRNA of GAPDH.

The subject of the next assay is MOLM-13 cells. As to the kind of experiment: Test 2: inhibition of cell proliferation, MOLM-13. In kind it is cell-based. The following applies: Homo sapiens, 168 h, cultured 7 days, PrestoBlue. Here is the method: (§2) RS4; 11 cells were obtained from American Type Culture Collection (ATCC). The cells were cultured at 37° C. in the presence of 5% CO2 in RPMI 1640 medium containing 10% fetal bovine serum and 1% penicillin/streptomycin. MOLM-13 cells were separately obtained from DSMZ. The cells were cultured at 37° C. in the presence of 5% CO2 in RPMI 1640 medium containing 20% fetal bovine serum and 1% penicillin/streptomycin.
(§3) The cells were plated to a 96-well plate in 2000 cells/well, each test compound was added thereto to adjust the final concentration of DMSO to 0.1% of DMSO, and the cells were cultured for 7 days. After the cultivation, the cell viability was calculated with PrestoBlue™ Cell Viability Reagent (Invitrogen, A13261). The IC50 value was calculated from a survival curve, that corresponds to the concentration of the test compound at which the cell proliferation inhibition rate is 50%.

A further assay deals with RS4; 11 cells. The assay can be described thus: Test 2: inhibition of cell proliferation, RS4; 11. In kind it is cell-based. The following applies: for IC50: Homo sapiens, 168 h, 11 cells, cultured 7 days, PrestoBlue; for cell proliferation inhibition activity (in words, good) / cell proliferation inhibitory activity (in words, potent): 11 and MOLM-13 cells, summary of the table; for cell proliferation inhibitory activity (in words, potent): 'especially'. On the procedure:
as §2, §3

In assay [2] the target is Menin-MLL binding (His-Menin1-615 / MLL1-172-FLAG) (Homo sapiens (Human), UniProt O00255). The assay can be described thus: Test 1: inhibition of the Menin-MLL binding (HTRF). The following applies: for Menin-MLL binding inhibition activity (in words): summary of the table. On the procedure: Menin1-615 wherein 6× His tag and HA tag are inserted in the N-terminus, and myc tag is inserted in the C-terminus (hereinafter, referred to as His-Menin1-615), was diluted with an assay buffer (25 mmol/L HEPES, 150 mmol/L NaCl, 1 mmol/L dithiothreitol, 0.5% (w/v) Tween 80, 0.3% (w/v) BSA, 0.3% (w/v) skim milk) to adjust the final concentration Lo 30 nmol/L. The test compounds were also diluted with the assay buffer to adjust each concentration of the test compounds to 0.005 to 5 μmol/L. The prepared His-Menin1-615 and test compounds were added to a light-shielding 384-well low-volume plate (Corning, #4514) in 2 μL/well and 6 μL/well, respectively, and the plate was covered with a lid for light-shielding (Corning, r-3935), and incubated at room temperature for 3 hours. After the incubation, MLL1-172 wherein FLAG tag is inserted in the C-terminus (MLL1-172-FLAG), was separately diluted with the assay buffer to adjust the final concentration to 50 nmol/L. The prepared MLL1-172-FLAG was added to the above plate in 2 μL/well, and the plate was covered with a lid for light-shielding and incubated at room temperature for an hour.
Then, anti-6HIS-d2 antibody (cisbio, 61HISDLA) and anti-FLAGM2-K antibody (cisbio, 61FG2KLA) were diluted with an antibody dilution buffer (50 mmol/L Tris, 150 mmol/L NaCl, 800 mmol/L KF, pH 7.4) to adjust the final concentration to 1.4 μg/mL to prepare an antibody mixture. The prepared antibody mixture was added to the above plate in 10 μL/well, and the plate was covered with a lid and incubated at 4° C. for 17 to 24 hours. After the incubation, the signal was detected with RUBYstar (BMG LABTECH). The binding inhibition rate (%) at each concentration of the test compounds was calculated from the following formula, and the IC50 value was obtained, that corresponds to the concentration of the test compound at which the binding inhibition rate is 50%.

Assay [3] concerns HOXA9 mRNA in MV4; 11 cells. As to the kind of experiment: Test 3: inhibition of mRNA transcription, HOXA9. The following applies: Homo sapiens, 20 to 24 hours, fitted with GAPDH, read-out: mRNA at 1 μM (% control) HOXA9. In kind it is cell-based. On the procedure: as §1

Chain of Menin-MLL binding (His-Menin1-615 / MLL1-172-FLAG) (O00255 other isoform, or with tags, fused parts or gaps): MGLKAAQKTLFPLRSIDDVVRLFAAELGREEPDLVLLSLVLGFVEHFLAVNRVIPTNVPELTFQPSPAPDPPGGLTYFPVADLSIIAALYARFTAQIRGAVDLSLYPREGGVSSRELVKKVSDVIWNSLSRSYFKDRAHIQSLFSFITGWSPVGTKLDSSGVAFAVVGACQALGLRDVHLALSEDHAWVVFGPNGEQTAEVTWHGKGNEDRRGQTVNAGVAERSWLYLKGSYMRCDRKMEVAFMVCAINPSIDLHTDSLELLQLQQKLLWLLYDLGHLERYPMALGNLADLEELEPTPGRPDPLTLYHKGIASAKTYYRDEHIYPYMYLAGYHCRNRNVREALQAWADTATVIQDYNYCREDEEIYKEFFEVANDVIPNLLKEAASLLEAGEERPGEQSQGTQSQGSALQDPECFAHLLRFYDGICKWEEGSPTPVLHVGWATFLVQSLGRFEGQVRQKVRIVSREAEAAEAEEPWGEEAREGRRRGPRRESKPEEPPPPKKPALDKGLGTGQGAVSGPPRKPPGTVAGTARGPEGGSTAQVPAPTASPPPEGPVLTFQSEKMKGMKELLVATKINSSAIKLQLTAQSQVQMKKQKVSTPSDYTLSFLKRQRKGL

`O=C([C@H]1N[C@H]2CC[C@@H]1C(F)(F)C2)N1CC2(C1)CN(c1c(C(F)(F)F)cnc3sc(CC(F)(F)F)cc13)C2` [Example 4, [(1S,3S,4S)-5,5-difluoro-2-azabicyclo[2.2.2]octan-3-yl]{6-[2-(2,2,2-trifluoroethyl)-5-(trifluoromethyl)thieno[2,3-b]pyridin-4-yl]-2,6-diazaspiro[3.3]heptan-2-yl}methanone]: the mrna remaining at 1 µM in assay [1] was determined as 65.4%; in assay [3], 60%. In addition, the IC50 in the assay on MOLM-13 cells worked out at 1700 nM; in the assay with RS4; 11 cells, 780 nM; in assay [2] it was 140 nM.
For `O=C([C@H]1N[C@H]2CC[C@@H]1C[C@@H]2O)N1CC2(C1)CN(c1c(C(F)(F)F)cnc3sc(CC(F)(F)F)cc13)C2` [Example 6, [(1S,3S,4R,6S)-6-hydroxy-2-azabicyclo[2.2.2]octan-3-yl]{6-[2-(2,2,2-trifluoroethyl)-5-(trifluoromethyl)thieno[2,3-b]pyridin-4-yl]-2,6-diazaspiro[3.3]heptan-2-yl}methanone] the same measures were 51.3%, 54.3%, 830 nM, 580 nM and 27.3 nM.
Regarding `O=C1C[C@@H]2CC[C@H]1[C@@H](C(=O)N1CC3(C1)CN(c1c(C(F)(F)F)cnc4sc(CC(F)(F)F)cc14)C3)N2` [Example 8, (1S,3S,4S)-3-{6-[2-(2,2,2-trifluoroethyl)-5-(trifluoromethyl)thieno[2,3-b]pyridin-4-yl]-2,6-diazaspiro[3.3]heptane-2-carbonyl}-2-azabicyclo[2.2.2]octan-5-one], the figures for the mrna remaining at 1 µM in assay [1] and in assay [3] were 82.9% and 79.3%, respectively. The IC50 amounted to 1100 nM in the assay with MOLM-13 cells, 330 nM in the assay with RS4; 11 cells and 635 nM in assay [2].
As for `O=C([C@H]1N[C@H]2CC[C@@H]1C[C@H]2F)N1CC2(C1)CN(c1c(C(F)(F)F)cnc3sc(CC(F)(F)F)cc13)C2` [Example 10, [(1S,3S,4R,6R)-6-fluoro-2-azabicyclo[2.2.2]octan-3-yl]{6-[2-(2,2,2-trifluoroethyl)-5-(trifluoromethyl)thieno[2,3-b]pyridin-4-yl]-2,6-diazaspiro[3.3]heptan-2-yl}methanone], the mrna remaining at 1 µM came out at 68.8% in assay [1] and 69.5% in assay [3]. For the same molecule, the half-inhibitory concentration (IC50) is 2100 nM with MOLM-13 cells, 810 nM with RS4; 11 cells and 343 nM in assay [2].
For `C=CCO[C@H]1C[C@H]2CC[C@@H]1N[C@@H]2C(=O)N1CC2(C1)CN(c1c(C(F)(F)F)cnc3sc(CC(F)(F)F)cc13)C2` [Example 11, {(1S,3S,4R,6S)-6-[(prop-2-en-1-yl)oxy]-2-azabicyclo[2.2.2]octan-3-yl}{6-[2-(2,2,2-trifluoroethyl)-5-(trifluoromethyl)thieno[2,3-b]pyridin-4-yl]-2,6-diazaspiro[3.3]heptan-2-yl}methanone] the same measures were 60.7%, 64.5%, 730 nM, 630 nM and 53.9 nM.
Taken in the same sequence, the figures for `O=C([C@H]1N[C@H]2CC[C@@H]1C[C@@H]2OCc1ccccc1)N1CC2(C1)CN(c1c(C(F)(F)F)cnc3sc(CC(F)(F)F)cc13)C2` [Example 13, [(1S,3S,4R,6S)-6-(benzyloxy)-2-azabicyclo[2.2.2]octan-3-yl]{6-[2-(2,2,2-trifluoroethyl)-5-(trifluoromethyl)thieno[2,3-b]pyridin-4-yl]-2,6-diazaspiro[3.3]heptan-2-yl}methanone] were 57.3%, 63%, 810 nM, 620 nM and 134 nM.
Take `N#Cc1cnc2sc(CC(F)(F)F)cc2c1N1CC2(CN(C(=O)[C@H]3NC4CCC3CC4)C2)C1` [Example 20, 4-{6-[(3S)-2-azabicyclo[2.2.2]octane-3-carbonyl]-2,6-diazaspiro[3.3]heptan-2-yl}-2-(2,2,2-trifluoroethyl)thieno[2,3-b]pyridine-5-carbonitrile]: in assay [1], the mrna remaining at 1 µM amounted to 41.8% and the “mRNA transcription inhibition activity (in words)” value is “showed the mRNA transcription inhibition activity”. For the same molecule, in the assay on MOLM-13 cells, 220 nM corresponded to half-maximal inhibition (IC50). For the same molecule, in the assay with RS4; 11 cells, the “cell proliferation inhibition activity (in words, good)” value (shortened to “cell proliferation inhibition activity”) is on record as “good”; the “cell proliferation inhibitory activity (in words, potent)” value is listed as “potent”; the concentration for half-maximal inhibition (IC50) amounted to 270 nM. In addition, in assay [2], the IC50 is 11.4 nM and the “Menin-MLL binding inhibition activity (in words)” value was “potent”. Further, the mrna remaining at 1 µM in assay [3] came out at 59.3%.
Turning to `N#Cc1cnc2sc(CC(F)(F)F)cc2c1N1CC2(CN(C(=O)[C@H]3N[C@@H]4CC[C@H]3C4)C2)C1` [Example 21, 4-{6-[(1R,3S,4S)-2-azabicyclo[2.2.1]heptane-3-carbonyl]-2,6-diazaspiro[3.3]heptan-2-yl}-2-(2,2,2-trifluoroethyl)thieno[2,3-b]pyridine-5-carbonitrile], in assay [1], the mrna remaining at 1 µM is 40.9% and the “mRNA transcription inhibition activity (in words)” value is recorded as “showed the mRNA transcription inhibition activity”. In the assay with MOLM-13 cells, this molecule gave an IC50 of 240 nM. In addition, in the assay on RS4; 11 cells, the “cell proliferation inhibition activity” value was “good”; the “cell proliferation inhibitory activity (in words, potent)” value was “potent”; the half-maximal inhibitory concentration (IC50) came out at 270 nM. In addition, in assay [2], the IC50 is 8.4 nM and the “Menin-MLL binding inhibition activity (in words)” value was “potent”. Also, the mrna remaining at 1 µM in assay [3] was 52.1%.
Turning to `N#Cc1cnc2sc(CC(F)(F)F)cc2c1N1CC2(CN(C(=O)[C@H]3N[C@H]4CC[C@@H]3C(=O)C4)C2)C1` [Example 25, 4-{6-[(1S,3S,4S)-5-oxo-2-azabicyclo[2.2.2]octane-3-carbonyl]-2,6-diazaspiro[3.3]heptan-2-yl}-2-(2,2,2-trifluoroethyl)thieno[2,3-b]pyridine-5-carbonitrile], the IC50 in the assay on MOLM-13 cells stood at 2200 nM; with RS4; 11 cells, 690 nM; in assay [2], 90.2 nM.
In the case of `O=C([C@H]1NC2CCC1CC2)N1CC2(C1)CN(c1c(C(F)F)cnc3sc(CC(F)(F)F)cc13)C2` [Example 26, [(3S)-2-azabicyclo[2.2.2]octan-3-yl]{6-[5-(difluoromethyl)-2-(2,2,2-trifluoroethyl)thieno[2,3-b]pyridin-4-yl]-2,6-diazaspiro[3.3]heptan-2-yl}methanone], in assay [1], the mrna remaining at 1 µM was 41.4% and the “mRNA transcription inhibition activity (in words)” value is given as “showed the mRNA transcription inhibition activity”. Further, in the assay on MOLM-13 cells, the IC50 is 680 nM. Also, in the assay with RS4; 11 cells, the “cell proliferation inhibition activity” value is recorded as “good” and inhibition was half-maximal at 290 nM (IC50). In assay [2], the 50% inhibitory concentration (IC50) came out at 44.7 nM and the “Menin-MLL binding inhibition activity (in words)” value is “potent”. Further, in assay [3], the mrna remaining at 1 µM was 57.6%.

Values taken from patent publication US11325921B2, “Optically active crosslinked cyclic secondary amine derivative” (Sumitomo Dainippon Pharma Co., Ltd., priority 2018, dated 2022).
